Measurements reported in patent US20220162215A1, “COMPOSITIONS AND METHODS OF USING THE SAME FOR TREATMENT OF NEURODEGENERATIVE AND MITOCHONDRIAL DISEASE” (MITOKININ, INC., priority 2019, published 2022).
Read-outs that look alike come from different tables or passages of the source.

What was measured:
HeLa MKYP cells [1] = assay: Toxicity / cell death measured by DAPI staining (take-up); assay type: cell-based; details: 50 μM; for Toxicity (% positive for DAPI take-up @ 50 μM): Table 1; for Toxicity (% positive for DAPI take-up at 50 μM)*: Table 3 Supplement A
Experimental: H2O2 treatment was performed as a control for cell death as measured by DAPI staining.
(§1) Briefly, HeLa MKYP cells were plated at 10,000 cells/well in 96 well plates along with compounds at various concentrations. Following 16 hrs of incubation, cells were treated with 1 uM FCCP/oligomycin for 6 hours, then analyzed via FACS for the presence of mitochondria in lysosomes (as determined by an emissions spectrum shift from the pH-sensitive mtKeima tag).

HeLa MKYP cells [2] = assay: Human mitophagy assay (HeLa MKYP, mtKeima FACS, FCCP/oligomycin); assay type: cell-based; details: for Potency at 1 μM F/O toxin: Table 1; for Potency at 1 μM F/O toxin / activation at 6.3 µM: % activation of mitophagy at 6.3 μM treatment of the compound; for activation at 1.6 µM / activation at 6.3 µM / EC50: Homo sapiens, HeLa; for activation at 1.6 µM / activation at 6.3 µM: 6 h, read-out: Potency at 1 μM F/O toxin*; for activation at 1.6 µM / Potency at 1 μM F/O toxin*: Table 2, % activation of mitophagy at 1.6 μM treatment of the compound
Experimental: as §1, with “tag). Examples are shown in FIG. 1 through FIG. 13 below.” for “tag).”

[3] = Table 3, read-out: Potency at 1 μM F/O toxin* (EC50 of mitophagy activation)
[4] = Table 3 Supplement A, as measured in Table 3, read-out: Potency (EC50 Max Mitophagy) (μM)*

Structure (SMILES) | Toxicity (% positive for DAPI takeup @ 50 μM) (HeLa MKYP cells [1]; Table 3) [%] | Toxicity (% positive for DAPI take-up at 50 μM)* (HeLa MKYP cells [1]) [%] | EC50 (HeLa MKYP cells [2]; [3]) [µM] | EC50 (HeLa MKYP cells [2]; [4]) [µM] | other results
CCCCNc1ncnc2[nH]c(C(F)(F)F)cc12 [Compound 1] | – | – | – | – | Toxicity (% positive for DAPI take-up @ 50 μM) (HeLa MKYP cells [1]): 4.6%; Potency at 1 μM F/O toxin (HeLa MKYP cells [2]): 42.3%
CCCCNc1ncnc2[nH]c(-c3ccnn3C)cc12 [Compound 2] | – | – | – | – | Toxicity (% positive for DAPI take-up @ 50 μM) (HeLa MKYP cells [1]): 94.6%; Potency at 1 μM F/O toxin (HeLa MKYP cells [2]): 15.0%
CCCCNc1ncnc2[nH]c(C(OCC)C(F)(F)F)cc12 (stereo not drawn) [Compound 3] | – | – | – | – | Toxicity (% positive for DAPI take-up @ 50 μM) (HeLa MKYP cells [1]): 15.8%; Potency at 1 μM F/O toxin (HeLa MKYP cells [2]): 25.9%
CCCCNc1ncnc2[nH]c(CC(F)(F)F)cc12 [Compound 4] | – | – | – | – | Toxicity (% positive for DAPI take-up @ 50 μM) (HeLa MKYP cells [1]): 24.8%; Potency at 1 μM F/O toxin (HeLa MKYP cells [2]): 13.9%
CCCCNc1ncnc2[nH]c(C(OCC)C(F)(F)F)cc12 (stereo not drawn) [Compound 5] | – | – | – | – | Toxicity (% positive for DAPI take-up @ 50 μM) (HeLa MKYP cells [1]): 47.4%; Potency at 1 μM F/O toxin (HeLa MKYP cells [2]): 17.9%
CCCCNc1ncnc2[nH]c(-c3ccccc3)cc12 [Compound 6] | – | – | – | – | Toxicity (% positive for DAPI take-up @ 50 μM) (HeLa MKYP cells [1]): 90.0%; Potency at 1 μM F/O toxin (HeLa MKYP cells [2]): 52.0%
CCCCNc1ncnc2[nH]c(CC)cc12 [Compound 7] | – | – | – | – | Toxicity (% positive for DAPI take-up @ 50 μM) (HeLa MKYP cells [1]): 93.4%; Potency at 1 μM F/O toxin (HeLa MKYP cells [2]): 14.0%
CCCCNc1ncnc2[nH]c(C)cc12 [Compound 8] | – | – | – | – | Toxicity (% positive for DAPI take-up @ 50 μM) (HeLa MKYP cells [1]): 15.4%; Potency at 1 μM F/O toxin (HeLa MKYP cells [2]): 43.4%
FC(F)(F)c1cc2c(NCc3ccccc3)ncnc2[nH]1 [Compound 9] | – | – | – | – | Toxicity (% positive for DAPI takeup @ 50 μM) (HeLa MKYP cells [1]; Table 2): 50.4%; activation at 1.6 µM (HeLa MKYP cells [2]): 35.1%
CC(C)(Nc1ncnc2[nH]c(C(F)(F)F)cc12)c1ccccc1 [Compound 10] | – | – | – | – | Toxicity (% positive for DAPI takeup @ 50 μM) (HeLa MKYP cells [1]; Table 2): 5.6%; activation at 1.6 µM (HeLa MKYP cells [2]): 17%
FC(F)(F)c1cc2c(NC3(c4ccccc4)CC3)ncnc2[nH]1 [Compound 11] | – | – | – | – | Toxicity (% positive for DAPI takeup @ 50 μM) (HeLa MKYP cells [1]; Table 2): 80.5%; activation at 1.6 µM (HeLa MKYP cells [2]): 20.8%
CC(Nc1ncnc2[nH]c(C(F)(F)F)cc12)c1ccccc1 (stereo not drawn) [Compound 12] | – | – | – | – | Toxicity (% positive for DAPI takeup @ 50 μM) (HeLa MKYP cells [1]; Table 2): 2.4%; activation at 1.6 µM (HeLa MKYP cells [2]): 88.4%
FC(F)(F)c1cc2c(NC3COc4ccccc43)ncnc2[nH]1 (stereo not drawn) [Compound 13] | – | – | – | – | Toxicity (% positive for DAPI takeup @ 50 μM) (HeLa MKYP cells [1]; Table 2): 39.7%; activation at 1.6 µM (HeLa MKYP cells [2]): 52.5%
COc1ccc2c(c1)CCCC2Nc1ncnc2[nH]c(C(F)(F)F)cc12 (stereo not drawn) [Compound 14] | – | – | – | – | Toxicity (% positive for DAPI takeup @ 50 μM) (HeLa MKYP cells [1]; Table 2): 95.5%; activation at 1.6 µM (HeLa MKYP cells [2]): 29.8%
FC(F)(F)c1cc2c(NC3CCCc4ccccc43)ncnc2[nH]1 (stereo not drawn) [Compound 16] | – | – | – | – | Toxicity (% positive for DAPI takeup @ 50 μM) (HeLa MKYP cells [1]; Table 2): 4.5%; Potency at 1 μM F/O toxin* (HeLa MKYP cells [2]): 10.1%
FC(F)(F)c1cc2c(NC3CCc4ccccc43)ncnc2[nH]1 (stereo not drawn) [Compound 17] | – | – | – | – | Toxicity (% positive for DAPI takeup @ 50 μM) (HeLa MKYP cells [1]; Table 2): 2.3%; activation at 1.6 µM (HeLa MKYP cells [2]): 14.8%
FC(F)(F)c1cc2c(NC3CCc4ccccc43)ncnc2[nH]1 (stereo not drawn) [Compound 18] | – | – | – | – | Toxicity (% positive for DAPI takeup @ 50 μM) (HeLa MKYP cells [1]; Table 2): 1.7%; Potency at 1 μM F/O toxin* (HeLa MKYP cells [2]): 14.3%
FC(F)(F)c1cc2c(NCc3cncnc3)ncnc2[nH]1 [Compound 19] | – | – | – | – | Toxicity (% positive for DAPI takeup @ 50 μM) (HeLa MKYP cells [1]; human): 1.7%; activation at 6.3 µM (HeLa MKYP cells [2]; Table 3): 50.3%
FC(F)(F)c1cc2c(NCc3ccncn3)ncnc2[nH]1 [Compound 20] | 1.5 | – | – | – | activation at 6.3 µM (HeLa MKYP cells [2]; Table 3): 7.9%
FC(F)(F)c1cc2c(NCc3cnccn3)ncnc2[nH]1 [Compound 21] | 0.9 | – | – | – | activation at 6.3 µM (HeLa MKYP cells [2]; Table 3): 9.1%
COc1ncccc1CNc1ncnc2[nH]c(C(F)(F)F)cc12 [Compound 22] | 7.6 | – | – | – | activation at 6.3 µM (HeLa MKYP cells [2]; Table 3): 18.5%
Fc1cccc(CNc2ncnc3[nH]c(C(F)(F)F)cc23)c1Cl [Compound 23] | 4.5 | – | – | – | activation at 6.3 µM (HeLa MKYP cells [2]; Table 3): 87.7%
Fc1cc(Cl)cc(CNc2ncnc3[nH]c(C(F)(F)F)cc23)c1 [Compound 24] | 4.8 | – | – | – | activation at 6.3 µM (HeLa MKYP cells [2]; Table 3): 51.2%
FC(F)(F)c1cc2c(NCc3cccc(Cl)c3)ncnc2[nH]1 [Compound 25] | 20.3 | – | – | – | activation at 6.3 µM (HeLa MKYP cells [2]; Table 3): 49.9%
CC(C)[C@@H](Nc1ncnc2[nH]c(C(F)(F)F)cc12)c1cncnc1 [Compound 26] | 6.8 | 6.82 | 6.9 | 6.85 | –
CCCCNc1ncnc2[nH]c(C3CC3)nc12 [Compound 29] | 16.2 | – | 18.8 | – | –

Structure (SMILES) | Toxicity (% positive for DAPI takeup @ 50 μM) (HeLa MKYP cells [1]; Table 3) [%] | Toxicity (% positive for DAPI take-up at 50 μM)* (HeLa MKYP cells [1]) [%] | EC50 (HeLa MKYP cells [2]; [3]) [µM] | EC50 (HeLa MKYP cells [2]; [4]) [µM] | other results
c1coc(CNc2ncnc3[nH]c(C4CCC4)nc23)c1 [Compound 30] | 3.0 | – | > 50 | – | –
CCCCNc1ncnc2[nH]c(C3CCC3)nc12 [Compound 31] | 6.1 | – | > 50 | – | –
FC(F)(F)c1cc2c(NC3CCCc4ccccc43)ncnc2[nH]1 (stereo not drawn) [Compound 32] | 27.1 | – | > 50 | – | –
FC(F)(F)c1cc2c(NC3CCOc4ccccc43)ncnc2[nH]1 (stereo not drawn) [Compound 33] | 22.3 | – | 3.5 | – | –
FC(F)(F)c1cc2c(NC3COCc4ccccc43)ncnc2[nH]1 (stereo not drawn) [Compound 34] | 42.9 | – | > 50 | – | –
COc1cc(CNc2ncnc3[nH]c(C4CC4)nc23)ccn1 [Compound 35] | 7.1 | – | > 50 | – | –
c1ncc(CNc2ncnc3[nH]c(C4CC4)nc23)cn1 [Compound 36] | – | – | > 50 | – | Toxicity (% positive for DAPI takeup @ 50 μM) (HeLa MKYP cells [1]; human): 7.1%
FC(F)(F)c1cc2c(N[C@H]3COc4ccccc43)ncnc2[nH]1 [Compound 39] | 22.8 | 27.32 | 1.4 | 1.49 | –
C[C@H](Nc1ncnc2[nH]c(C(F)(F)F)cc12)c1ccccc1 [Compound 40] | 90.8 | 92.03 | 0.3 | 0.02 | –
FC(F)(F)c1cc2c(N[C@@H]3COc4ccccc43)ncnc2[nH]1 [Compound 41] | 29.2 | 29.25 | 14.9 | 14.9 | –
FC(F)(F)c1cc2c(N[C@H]3CCOc4ccccc43)ncnc2[nH]1 [Compound 42] | 37.7 | 37.66 | 5.6 | 5.64 | –
FC(F)(F)c1cc2c(NC3CCCc4ncncc43)ncnc2[nH]1 (stereo not drawn) [Compound 45] | 12.0 | 11.97 | > 50 | > 25 | –
C[C@H](Nc1ncnc2[nH]c(C3CC3)nc12)c1ccccc1 [Compound 46] | 27.6 | 27.61 | 3.2 | 3.17 | –
C[C@@H](Nc1ncnc2[nH]c(C3CC3)nc12)c1ccccc1 [Compound 47] | 12.3 | 12.33 | > 50 | > 25 | –
COc1ccccc1CNc1ncnc2[nH]c(C(F)(F)F)cc12 [Compound 48] | 24.7 | – | 2 | – | –
FC(F)(F)c1cc2c(NCc3cncnc3)ncnc2[nH]1 [Compound 49] | – | – | 11.7 | – | Toxicity (% positive for DAPI takeup @ 50 μM) (HeLa MKYP cells [1]; human): 23.0%
COc1ccc(CNc2ncnc3[nH]c(C(F)(F)F)cc23)c(OC)c1 [Compound 51] | 42.6 | – | 2.1 | – | –
c1ccc2c(c1)OCC2Nc1ncnc2[nH]cnc12 (stereo not drawn) [Compound 53] | 21.0 | 20.95 | 6.1 | 6.11 | –
c1ccc2c(c1)CC[C@@H]2Nc1ncnc2[nH]cnc12 [Compound 54] | 16.2 | 16.16 | 4.4 | 4.38 | –
c1ccc2c(c1)CC[C@H]2Nc1ncnc2[nH]cnc12 [Compound 55] | 10.3 | 10.31 | > 50 | > 25 | –
COc1ccccc1CNc1ncnc2nc[nH]c12 [Compound 56] | 12.4 | 12.42 | 10.8 | 10.8 | –
Clc1cccc(CNc2ncnc3nc[nH]c23)c1 [Compound 58] | 12.5 | 12.54 | 16 | 16 | –
c1ccc2c(c1)OCC[C@@H]2Nc1ncnc2[nH]cnc12 [Compound 59] | 17.0 | 19.76 | 1.8 | 1.69 | –
c1ccc(CCNc2ncnc3[nH]cnc23)cc1 [Compound 60] | 19.7 | 23.09 | 2.8 | 2.26 | –
OC[C@@H](Nc1ncnc2[nH]cnc12)c1ccccc1 [Compound 61] | 8.9 | 8.9 | > 50 | > 25 | –
c1ccc2c(c1)OCC[C@H]2Nc1ncnc2[nH]cnc12 [Compound 62] | 16.0 | 15.96 | > 50 | > 25 | –
